Converted amounts (≈) assume the structure as drawn.
Columns and labels:
[1] = tested on: Human immunodeficiency virus 1; test: Antiviral activity against HIV1 3B infected in human MT2 cells assessed as protection against viral infection by MTT method; type: functional, organism-based; settings: Human immunodeficiency virus 1, 3B
[2] = Cytotoxicity against human MT2 cells assessed as growth inhibition by MTT method; type: cell-based
[3] = tested on: Human immunodeficiency virus 1; test: Antiviral activity against HIV1 3B harboring reverse transcriptase Y181C mutant infected in human MT2 cells assessed as protection against viral infection by MTT method; type: functional, organism-based
[4] = tested on: Human immunodeficiency virus 1; test: Antiviral activity against HIV1 3B harboring reverse transcriptase K103N/Y181C double mutant infected in human MT2 cells assessed as protection against viral infection by MTT method; type: functional, organism-based
[5] = Aqueous solubility of compound in pH 6.5 solution by shake flask method; type: physicochemical; settings: aqueous solution pH 6.5, pH 6.5
[6] = Human immunodeficiency virus 1, 3B, MT2, read-out: EC50

Question: Which results are given for `N#Cc1cc2c(Oc3ccccc3OCCn3ccc(=O)[nH]c3=O)cc(Cl)cc2o1`?
Answer: EC50 [1]: 19 nM; CC50 [2]: > 100 µM; EC50 [3, 6]: 1900 nM; EC50 [4, 6]: 260 nM

Question: With `COc1ccnc(Nc2ccc(Cl)c(Oc3ccccc3)c2)n1` as the compound, how does the EC50 [1] read?
Answer: 2500 nM

Question: For `Cc1ccc(OCCn2ccc(=O)[nH]c2=O)c(Cc2ccccc2)c1`, which EC50 [1] is on record?
Answer: 4800 nM

Question: Which EC50 [1] does the source give for `CSc1ccnc(Nc2ccc(C#N)c(Oc3cccc(/C=C/C#N)c3)c2)n1` here?
Answer: 48 nM

Question: And the CC50 [2]?
Answer: 1.2 µM

Question: What about the EC50 [3, 6] of the same compound?
Answer: 250 nM

Question: Which results are given for `CC(C)=CCOc1cc(Nc2nccn3cccc23)ccc1Cl`?
Answer: EC50 [1]: 19 nM; CC50 [2]: 20 µM

Question: With `N#Cc1ccc2c(Oc3ccccc3OCCn3ccc(=O)[nH]c3=O)cc(F)cc2c1` as the compound, how does the solubility thermodynamic [5] read?
Answer: 9.1 µg/mL (≈ 21.8 µM)

Question: Which EC50 [1] does the source give for `Cc1cc(Oc2ccccc2OCCn2ccc(=O)[nH]c2=O)c2cc(C#N)[nH]c2c1` here?
Answer: 10 nM

Question: And the EC50 [3]?
Answer: Not Active

Question: What about the EC50 [4, 6] of the same compound?
Answer: 800 nM

Question: Which results are given for `CC(C)=CCOc1cc(Nc2nccc3cccn23)ccc1Cl`?
Answer: EC50 [1]: 130 nM; CC50 [2]: 17 µM

Question: For `Cc1cc(/C=C/C#N)cc(Oc2cc(Nc3ncnc(C4CC4)n3)ccc2C)c1`, which EC50 [1] is on record?
Answer: 1.7 nM

Question: And the EC50 [3, 6]?
Answer: 15 nM

Question: Which results are given for `N#Cc1cc2c(Oc3ccccc3OCCn3ccc(=O)[nH]c3=O)cccn2c1`?
Answer: EC50 [1]: 0.38 nM; CC50 [2]: > 100 µM; EC50 [3, 6]: 310 nM; EC50 [4, 6]: 11 nM

Question: Which results are given for `CC(C)=CCOc1cc(Nc2ncnc3occc23)ccc1Cl`?
Answer: EC50 [1]: 5 nM; CC50 [2]: 17 µM

Question: Which results are given for `CC(C)=CCOc1cc(Nc2nccc3cc[nH]c23)ccc1Cl`?
Answer: EC50 [1]: 900 nM; CC50 [2]: 9.2 µM

Question: For `Cc1cc(/C=C/C#N)cc(Oc2cc(Nc3ncnc(C4CC4)n3)ccc2Cl)c1`, which EC50 [3, 6] is on record?
Answer: 4.9 nM

Question: For `Cc1ccnc2c1NC(=O)c1cccnc1N2C1CC1` [NEVIRAPINE], which CC50 [2] is on record?
Answer: > 100 µM

Question: What about the EC50 [3] of the same compound?
Answer: Not Active

Question: And the EC50 [4]?
Answer: Not Active

Question: For `N#Cc1ccc2c(Oc3ccc(F)cc3OCCn3ccc(=O)[nH]c3=O)cc(F)cc2c1`, which solubility thermodynamic [5] is on record?
Answer: 82.9 µg/mL (≈ 190 µM)
